{"source": "patent US12599602B2", "about": "“Methods for treating cholestasis” (Mirum Pharmaceuticals, Inc., priority 2019, dated 2026)", "key": {"[1]": {"tested_on": "Children with Alagille Syndrome", "procedure": "Children aged 1-18 years with a diagnosis of ALGS and evidence of cholestasis were eligible to enroll in the ICONIC clinical study, see Tables 12-14. During a long-term extension, participants with sBA levels above the upper limit of normal and/or an ITCHRO(OBS) score >1.5 were eligible for the 400 μg/kg BID dose (all participants received the 400 μg/kg BID dose). Inclusion criteria for the ICONIC study included having cholestasis, which was defined as at least one of 1) sBA concentration (total sBA) >3× the upper limit of normal, 2) serum conjugated bilirubin concentration >1 mg/dL, 3) fat-soluble vitamin deficiency not otherwise explained, 4) serum gamma-glutamyl transferase concentration >3× the upper limit of normal, and 3) intractable pruritus explainable only by liver disease. Inclusion criteria also included having significant pruritus, which was defined as an average daily score of >2 on the ITCHRO(OBS) scale for 2 consecutive weeks (0=no pruritus; 4=most severe pruritus). Exclusion criteria included having surgically disrupted enterohepatic circulation, a liver transplant, decompensated cirrhosis, or having any liver disease other than ALGS.\nsBA responders were defined as those patients achieving ≥50% reduction from baseline in sBA at week 12 or 18. ITCHRO responders were defined as those patients achieving at least a 1-point reduction from Baseline in weekly morning ITCHRO(OBS) score at week 12 or 18.\nIn the open label extension, the effect of higher doses was explored by increasing dosage to a maximum of 400 μg/kg BID in eligible participants.\nEfficacy assessments were based on changes from baseline in sBA concentration, weekly average ITCHRO(OBS) scores (0, none; 4, most severe), CSS score (0, none; 4 most severe), and Clinician Xanthoma Scale score (0, none; 4, disabling). […] During the long-term extension, efficacy assessments were conducted every 12 weeks. Serum total cholesterol and serum 7αC4 concentration were also monitored during the ICONIC clinical study, among other measures.\nsBA were measured using a fully validated liquid chromatography-electrospray ionization-mass electrospray (LC-ESI-MS) method using stable-isotope dilution analysis to measure serum concentrations of principal bile acids (cholic, chenodeoxycholic, ursodeoxycholic, deoxycholic acid, lithocholic, and their corresponding glycine and taurine conjugates). Serum samples were analyzed in the Division of Pathology and Laboratory Medicine, Cincinnati Children's Hospital Medical Center according to SOP #PATH.CMS.1033. Calibration standards of individual bile acids were in the range of 50-25,000 ng/mL and Quality Control samples were prepared at concentrations of 100, 500, 1000, 2500, and 20000 ng/mL. The intra- and inter-assay imprecision of the method for individual bile acids measured was within the accepted GLP quality assurance guidelines of <15% coefficient of variance for these QC samples. The lower limit of quantification of the assay was set at 100 ng/mL and the imprecision at this concentration was <20%. The limit of detection of the assay was 5 ng/mL. Total sBA is represented by the sum of the individual bile acid species measured."}, "[2]": {"tested_on": "Overweight and obese adults", "experiment": "Phase 1 blinded, placebo-controlled, dose-ranging clinical study (NCT02475317), fecal bile acid excretion", "procedure": "Participants consumed a low-fiber diet (<10 mg/day) for 2 days before randomization and during the 7-day treatment period. Measurements were taken of fBA, sBA concentration, and serum 7αC4 concentration (which is a biomarker of bile acid synthesis) prior to drug administration and at day 7."}, "[3]": {"settings": "Withdrawal-Week 22, Maralixibat group"}, "[4]": {"settings": "first 18 weeks of treatment, 400 μg/kg QD"}, "[5]": {"settings": "one line per Subject ID (Table 18)"}, "[6]": {"settings": "one line per Subject ID (Table 19)"}, "[7]": {"settings": "sBA Normalization (<8.5 μmol/L)"}}, "note": "Where “and” joins values, the source holds several entries; their conditions need not be identical. Equal values may be shown once. Read-outs that look alike come from different tables or passages of the source."}
{"substance": "maralixibat", "values": [{"measurement": "ItchRO (Obs) responders, Decrease from baseline ≥1.25", "setting": "[1]; Open-label Week 48", "result": 58.6, "unit": "%"}, {"measurement": "ItchRO (Obs) responders, Decrease from baseline ≥1.5", "setting": "[1]; Open-label Week 48", "result": 51.7, "unit": "%"}, {"measurement": "C4, Mean", "setting": "[1]; Week 48, n = 15", "result": 20.4, "unit": "ng/mL"}, {"measurement": "Serum cholesterol, Mean", "setting": "[1]; Week 48, n = 15", "result": 340.3, "unit": "mg/dL"}, {"measurement": "C4, Mean", "setting": "[1]; Week 191, n = 15", "result": 30.4, "unit": "ng/mL"}, {"measurement": "Serum cholesterol, Mean", "setting": "[1]; Week 191, n = 15", "result": 277.5, "unit": "mg/dL"}, {"measurement": "ItchRO (Obs) responders, Decrease from baseline ≥1", "setting": "[1]; [3]", "result": 53.8, "unit": "%"}, {"measurement": "ItchRO (Obs) responders, Decrease from baseline ≥1.25", "setting": "[1]; [3]", "result": 46.2, "unit": "%"}, {"measurement": "ItchRO (Obs) responders, Decrease from baseline ≥1.5", "setting": "[1]; [3]", "result": 23.1, "unit": "%"}, {"measurement": "study days with minimal or no pruritus (ITCHRO(OBS)≤1)", "setting": "[1]; after 98 weeks, across participants", "result": "over 89%"}, {"measurement": "Clinician xanthoma scale scores", "setting": "[1]; all participants by week 48", "result": "improved significantly"}, {"measurement": "CSS score, mean reduction", "setting": "[1]; at 191 weeks", "result": 2.4, "unit": "points"}, {"measurement": "ITCHRO(OBS) score, mean change from baseline", "setting": "[1]; at 191 weeks", "result": "−2.5"}, {"measurement": "sBA levels, reduction from baseline", "setting": "[1]; at 191 weeks", "result": "about 57%"}, {"measurement": "ITCHRO(OBS) final score", "setting": "[1]; at 193 weeks", "result": "about 0.33"}, {"measurement": "ITCHRO(OBS) score, mean reduction", "setting": "[1]; at 193 weeks", "result": "over 2 points"}, {"measurement": "CSS final average score", "setting": "[1]; by week 48, all participants", "result": "about 1.5"}, {"measurement": "CSS scores, average decrease", "setting": "[1]; by week 48, all participants", "result": "over 1.5 points"}, {"measurement": "Clinician Xanthoma Score, reduction from baseline", "setting": "[1]; by week 191", "result": 0.7, "unit": "points"}, {"measurement": "ITCHRO(OBS) scores, average decrease relative to baseline", "setting": "[1]; by week 193 (second statement of b611)", "result": "over 1.5 points"}, {"measurement": "PedsQL Multidimensional Fatigue Scale scores", "setting": "[1]; core study and extension", "result": "Improvements"}, {"measurement": "tolerability", "setting": "[1]; core study and extension, over three years", "result": "well tolerated"}, {"measurement": "tolerability", "setting": "[1]; doses up to 800 μg/kg/day, treatment duration up to 4 years", "result": "generally well tolerated"}, {"measurement": "ITCHRO(OBS) scores, mean change from baseline", "setting": "[1]; [4]", "result": "−1.7"}, {"measurement": "sBA concentration, decrease", "setting": "[1]; [4]", "result": 31, "unit": "%"}, {"measurement": "Serum Bile Acid, Change from Baseline to Week 48", "setting": "[1]; [5]", "result": "−166.3 μmol/L and −281.4 μmol/L and 166.4 μmol/L and −121.1 μmol/L and 4.3 μmol/L (2×) and −251.0 μmol/L and 3.3 μmol/L and −27.3 μmol/L and −155.5 μmol/L and −240.2 μmol/L and 9.0 μmol/L and 143.1 μmol/L and −112.2 μmol/L and 16.4 μmol/L and −10.9 μmol/L and −16.9 μmol/L and 54.5 μmol/L and −620.4 μmol/L and −23.9 μmol/L and −377.3 μmol/L and −205.9 μmol/L and −270.4 μmol/L and 25.5 μmol/L and −203.6 μmol/L and −96.4 μmol/L and −33.9 μmol/L and −56.4 μmol/L"}, {"measurement": "Serum Bile Acid, Week 48", "setting": "[1]; [5]", "result": "131.8 µmol/L and 98.5 µmol/L and 578.1 µmol/L and 20.8 µmol/L and 333.0 µmol/L and 119.6 µmol/L and 117.7 µmol/L and 492.6 µmol/L and 427.9 µmol/L and 199.8 µmol/L and 29.2 µmol/L and 891.6 µmol/L and 163.4 µmol/L and 60.2 µmol/L and 12.0 µmol/L and 23.6 µmol/L and 126.1 µmol/L and 37.0 µmol/L and 7.0 µmol/L and 101.9 µmol/L and 293.3 µmol/L and 65.0 µmol/L and 110.9 µmol/L and 35.8 µmol/L and 208.0 µmol/L and 55.8 µmol/L and 15.6 µmol/L and 22.9 µmol/L"}, {"measurement": "ItchRO(Obs) Weekly Morning Average Score, Change from Baseline to Week 48", "setting": "[1]; [6]", "result": "−0.12 and 0.49 and −0.45 and 1.29 and −3.86 and 0.00 and −2.57 and −1.86 (2×) and −1.71 (2×) and −1.00 (2×) and −1.29 and −1.67 and −1.14 and −1.03 and −3.29 (2×) and −3.43 and −2.50 and −2.71 (2×) and −3.50 and −2.29 and −0.17 and −1.43 and −0.83"}, {"measurement": "ItchRO(Obs) Weekly Morning Average Score, Week 48", "setting": "[1]; [6]", "result": "2.71 and 3.20 and 1.83 and 3.71 and 0.14 and 1.86 and 0.71 and 1.14 (2×) and 0.29 (2×) and 2.00 (2×) and 1.71 (2×) and 1.00 and 1.40 and 0.00 (7×) and 1.43 and 1.57 and 3.50 and 2.17"}, {"measurement": "Height Z-score, increase from baseline", "setting": "[1]; participants in the ICONIC clinical study", "result": 0.5}, {"measurement": "growth after dose increase", "setting": "[1]; patients (N=15) given 400 μg/kg BID after 400 μg/kg QD for in excess of about 40 weeks", "result": "further increase in growth from baseline"}, {"measurement": "ITCHRO(OBS), LS mean difference maralixibat vs placebo", "setting": "[1]; randomized withdrawal", "result": "−1.5"}, {"measurement": "sBA levels, least squares mean difference maralixibat vs placebo", "setting": "[1]; randomized withdrawal (week 18-22)", "result": "−114.0"}, {"measurement": "ItchRO(Obs) Weekly Morning Average Score, Average Change from Baseline", "setting": "[1]; [7]", "result": "−3.50"}, {"measurement": "ItchRO(Obs) Weekly Morning Average Score, Week 48 Average Score", "setting": "[1]; [7]", "result": 0.00}, {"measurement": "ItchRO(Obs) Weekly Morning Average Score, Average Change from Baseline", "setting": "[1]; sBA ≥50% Reduction", "result": "−1.86"}, {"measurement": "ItchRO(Obs) Weekly Morning Average Score, Week 48 Average Score", "setting": "[1]; sBA ≥50% Reduction", "result": 1.07}, {"measurement": "ItchRO(Obs) Weekly Morning Average Score, Average Change from Baseline", "setting": "[1]; sBA ≥60% Reduction", "result": "−2.12"}, {"measurement": "ItchRO(Obs) Weekly Morning Average Score, Week 48 Average Score", "setting": "[1]; sBA ≥60% Reduction", "result": 0.82}, {"measurement": "ItchRO(Obs) Weekly Morning Average Score, Average Change from Baseline", "setting": "[1]; sBA ≥70% Reduction", "result": "−2.31"}, {"measurement": "ItchRO(Obs) Weekly Morning Average Score, Week 48 Average Score", "setting": "[1]; sBA ≥70% Reduction", "result": 0.62}, {"measurement": "ItchRO(Obs) Weekly Morning Average Score, Average Change from Baseline", "setting": "[1]; sBA ≥80% Reduction", "result": "−2.79"}, {"measurement": "ItchRO(Obs) Weekly Morning Average Score, Week 48 Average Score", "setting": "[1]; sBA ≥80% Reduction", "result": 0.11}, {"measurement": "ItchRO(Obs) Weekly Morning Average Score, Average Change from Baseline", "setting": "[1]; sBA ≥90% Reduction", "result": "−2.71"}, {"measurement": "ItchRO(Obs) Weekly Morning Average Score, Week 48 Average Score", "setting": "[1]; sBA ≥90% Reduction", "result": 0.00}, {"measurement": "relation between reduction in sBA concentration and reduction of severity of pruritus (ITCHRO(OBS))", "setting": "[1]; week 48", "result": "positive correlation"}, {"measurement": "sBA response, Week 48 (N = 28) n (%)", "setting": "[1]; ≥50% Reduction", "result": "13 (46.4%)"}, {"measurement": "sBA response, Week 48 (N = 28) n (%)", "setting": "[1]; ≥60% Reduction", "result": "11 (39.3%)"}, {"measurement": "sBA response, Week 48 (N = 28) n (%)", "setting": "[1]; ≥70% Reduction", "result": "8 (28.6%)"}, {"measurement": "sBA response, Week 48 (N = 28) n (%)", "setting": "[1]; ≥80% Reduction", "result": "4 (14.3%)"}, {"measurement": "sBA response, Week 48 (N = 28) n (%)", "setting": "[1]; ≥90% Reduction", "result": "1 (3.6%)"}, {"measurement": "fBA excretion, mean change from baseline", "setting": "[2]; 10 mg dose, 7 days", "result": 515, "unit": "µmol"}, {"measurement": "fBA excretion, mean change from baseline", "setting": "[2]; 20 mg dose, 7 days", "result": 532, "unit": "µmol"}, {"measurement": "fBA excretion, mean change from baseline", "setting": "[2]; 50 mg BID, 7 days", "result": 1251, "unit": "µmol"}, {"measurement": "fBA excretion, mean change from baseline", "setting": "[2]; 100 mg QD, 7 days", "result": 1144, "unit": "µmol"}, {"measurement": "Mean sBA levels", "setting": "[2]; 7 days", "result": "not elevated"}, {"measurement": "fBA excretion", "setting": "[2]; across doses", "result": "increased in a dose-dependent manner"}, {"measurement": "treatment-emergent adverse events occurring in over 10% of participants", "setting": "[2]; all doses", "result": "headache and diarrhea"}, {"measurement": "treatment-emergent adverse events, severity", "setting": "[2]; all doses", "result": "mild, and none were serious"}, {"measurement": "Mean serum 7αC4", "setting": "[2]; baseline to day 7", "result": "increased"}]}
